Measurements from patent US6410792B1, “Amide derivatives and methods for using the same as selective neuropeptide Y receptor antagonists” (Bayer Corporation, priority 1997, dated 2002).
Like-named read-outs stand apart in the source and are kept apart here.

What was measured:
Human NPY5 receptor = target: T1, Human NPY5 receptor (Homo sapiens, UniProt Q15761); assay: Human NPY5 receptor binding assay ([125I]PYY, membrane protein)
T1 sequence (Q15761 1-445): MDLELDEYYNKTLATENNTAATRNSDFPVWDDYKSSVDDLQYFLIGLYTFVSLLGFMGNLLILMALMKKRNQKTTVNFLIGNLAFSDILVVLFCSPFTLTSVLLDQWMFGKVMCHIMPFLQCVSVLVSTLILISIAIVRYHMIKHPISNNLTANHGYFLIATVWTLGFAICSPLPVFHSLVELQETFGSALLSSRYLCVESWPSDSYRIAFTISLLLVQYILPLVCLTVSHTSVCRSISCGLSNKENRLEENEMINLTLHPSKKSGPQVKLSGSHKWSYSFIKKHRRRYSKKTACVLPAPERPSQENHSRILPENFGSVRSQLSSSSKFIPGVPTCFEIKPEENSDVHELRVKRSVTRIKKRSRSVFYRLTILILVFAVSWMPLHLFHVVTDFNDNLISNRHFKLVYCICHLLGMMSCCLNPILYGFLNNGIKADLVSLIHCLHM
Outline: (§1)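 Bound [125I]PYY is measured by gamma counting or liquid scintillation after vacuum filtration and ice-cold washes. Before that, membranes, 75-100 pM tracer and compound are incubated 2 hours at room temperature, with nonspecific binding defined by 1 μM PYY.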

Human NPY1 receptor = target: T2, Human NPY1 receptor (Homo sapiens, UniProt P25929); assay: Human NPY1 receptor binding assay ([125I]PYY, SK-N-MC cells); conditions: [125I]PYY, SK-N-MC cells; read-out: hNPYI IC50
T2 construct: host or cells: SK-N-MC cells
T2 sequence (P25929 1-384): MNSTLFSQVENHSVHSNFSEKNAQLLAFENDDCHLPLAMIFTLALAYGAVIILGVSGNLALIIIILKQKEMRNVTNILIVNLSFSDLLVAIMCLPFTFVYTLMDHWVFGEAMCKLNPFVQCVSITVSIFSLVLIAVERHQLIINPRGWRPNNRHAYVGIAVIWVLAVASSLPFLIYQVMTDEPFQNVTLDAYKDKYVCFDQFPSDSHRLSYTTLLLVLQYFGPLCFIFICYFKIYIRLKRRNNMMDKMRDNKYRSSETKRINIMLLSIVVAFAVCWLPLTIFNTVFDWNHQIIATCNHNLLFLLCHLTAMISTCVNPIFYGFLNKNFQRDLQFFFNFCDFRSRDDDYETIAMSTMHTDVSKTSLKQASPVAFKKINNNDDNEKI
Outline: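 Confluent SK-N-MC cells preincubated 30 min at room temperature in serum-free DMEM/25 mM HEPES pH 7.3 with BSA, bacitracin and PMSF, then incubated 3 h at room temperature with compound and ~50 pM [125I]PYY. Nonspecific binding defined with 1 μM NPY; bound radioactivity counted after Triton X-100 lysis.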

Rat NPY5 receptor [1] = target: T3, Rat NPY5 receptor (Rattus norvegicus, UniProt Q63634); assay: Rat NPY5 receptor binding assay ([125I]PYY, membrane protein)
T3 sequence (Q63634 1-445): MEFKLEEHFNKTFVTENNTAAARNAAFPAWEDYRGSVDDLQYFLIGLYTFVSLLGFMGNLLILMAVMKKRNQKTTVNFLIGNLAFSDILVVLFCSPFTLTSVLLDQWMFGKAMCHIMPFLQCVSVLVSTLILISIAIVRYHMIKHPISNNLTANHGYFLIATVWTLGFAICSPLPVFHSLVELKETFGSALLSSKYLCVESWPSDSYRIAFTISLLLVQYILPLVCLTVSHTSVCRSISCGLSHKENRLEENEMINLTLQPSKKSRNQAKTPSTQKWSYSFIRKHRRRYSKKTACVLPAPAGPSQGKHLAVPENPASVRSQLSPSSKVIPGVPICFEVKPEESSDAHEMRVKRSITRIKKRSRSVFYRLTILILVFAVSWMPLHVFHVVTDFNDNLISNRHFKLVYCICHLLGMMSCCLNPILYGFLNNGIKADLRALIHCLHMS
Outline: as §1

Rat NPY5 receptor [2] = target: T3, Rat NPY5 receptor; assay: Rat NPY5 cyclase assay (in vitro functional assay, forskolin-stimulated adenylate cyclase, cAMP); format: cell-based; conditions: 10 μM, percentage of forskolin-stimulated adenylate cyclase; for activity at 10 µM: 20 min, read-out: rNPY5 % FSAC (10 μM)
Experimental: D. Rat NYP5 Cyclase Assay (In Vitro Functional Assay)
Cells stably expressing the rat NPY5 receptor are resuspended in serum-free DMEM containing 10 mM HEPES (pH 7.4) and 1 mM isobutylmethylxanthine (IBMX). […] forskolin and drug dilution are then added to the cells. After a 20 minute incubation of the samples at 37° C, the assay is stopped by placing the samples in boiling water for 3 minutes. The cAMP produced in each sample is quantitated with a radioimmunoassay kit (NEN DuPont). Data are expressed as a percentage of forskolin-stimulated adenylate cyclase.

human Y4/PP1 receptor = human Y4/PP1 receptor (Homo sapiens, UniProt P50391); assay: Human Y4/PP1 receptor binding assay ([125I]human PP, membrane protein); conditions: [125I]human PP, membrane protein; read-out: hNPY4 IC50
human Y4/PP1 receptor, sequence (P50391 whole entry): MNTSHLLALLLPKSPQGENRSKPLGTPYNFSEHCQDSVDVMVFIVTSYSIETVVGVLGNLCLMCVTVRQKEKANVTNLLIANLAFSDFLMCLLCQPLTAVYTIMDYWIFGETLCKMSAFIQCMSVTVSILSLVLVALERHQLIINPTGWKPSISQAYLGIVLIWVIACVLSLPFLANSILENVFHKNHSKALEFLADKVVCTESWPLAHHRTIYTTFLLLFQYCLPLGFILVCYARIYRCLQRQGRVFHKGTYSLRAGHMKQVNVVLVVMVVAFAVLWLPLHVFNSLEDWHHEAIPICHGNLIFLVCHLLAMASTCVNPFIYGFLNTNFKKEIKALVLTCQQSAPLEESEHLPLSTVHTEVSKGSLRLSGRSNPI
Outline: (§2)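 Filtration binding with membrane protein and drug dilution, 2 h at room temperature with mixing, radioactivity counted by gamma or scintillation. Y2: 25 pM [125I]PYY in Krebs-Ringer bicarbonate pH 7.4 with 0.01% BSA, nonspecific by 1 μM NPY. Y4/PP1: 50 pM [125I]hPP in HEPES-buffered saline pH 7.4 with protease inhibitors and 0.3% BSA, nonspecific by 1 μM hPP.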

Y2 receptor = target: T4, Y2 receptor (Homo sapiens, UniProt P49146); assay: Y2 receptor binding assay ([125I]PYY, membrane protein); conditions: [125I]PYY, membrane protein; read-out: hNPY2 IC50
T4 sequence (P49146 1-381): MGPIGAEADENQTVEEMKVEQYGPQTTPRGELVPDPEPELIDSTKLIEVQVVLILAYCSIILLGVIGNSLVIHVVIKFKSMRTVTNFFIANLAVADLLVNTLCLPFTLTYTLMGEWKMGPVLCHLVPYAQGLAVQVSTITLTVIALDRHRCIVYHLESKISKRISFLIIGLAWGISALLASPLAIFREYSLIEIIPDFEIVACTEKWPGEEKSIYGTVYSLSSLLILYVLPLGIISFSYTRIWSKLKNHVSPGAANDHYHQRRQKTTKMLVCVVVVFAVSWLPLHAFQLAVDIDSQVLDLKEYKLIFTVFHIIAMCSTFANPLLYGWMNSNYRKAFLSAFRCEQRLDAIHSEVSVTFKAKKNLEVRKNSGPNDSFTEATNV
Outline: as §2

[3] = [125I]PYY, read-out: hNPY5 IC50
[4] = [125I]PYY, read-out: rNPY5 IC50

| Structure (SMILES) | IC50 (Human NPY5 receptor; [3]) | IC50 (Human NPY1 receptor) | IC50 (Rat NPY5 receptor [1]; [4]) | melting point | activity at 10 µM (Rat NPY5 receptor [2]) | IC50 (human Y4/PP1 receptor) | IC50 (Y2 receptor) | IC50 (Human NPY5 receptor; hNPY5 IC50, [125I]PYY) | IC50 (Rat NPY5 receptor [1]; rNPY5 IC50, [125I]PYY) | rNPY5 % FSAC (10 μM) (Rat NPY5 receptor [2]) |
| --- | --- | --- | --- | --- | --- | --- | --- | --- | --- | --- |
| O=C(CN1CCC(n2c(=O)[nH]c3ccccc32)CC1)Nc1ccc(-c2ccc(F)cc2)cc1 [Compound 259, N-(4′-Fluoro-biphenyl-4-yl)-2-[4-(2-oxo-2,3-dihydro-benzoimidazol-1-yl)-piperidin-1-yl]-acetamide] | 150 nM | > 5000 nM | 87 nM | 228 to 229 °C | 101% | > 5000 nM | > 5000 nM | – | – | – |
| Cl.O=C(CN1CCC(n2c(=O)[nH]c3ccccc32)CC1)NCCc1ccccc1 [Compound 280, 2-[4-(2-Oxo-2,3-dihydro-benzoimidazol-1-yl)-piperidin-1-yl]-N-phenethyl-acetamide; hydrochloride] | – | > 5000 nM | – | 181 to 182 °C | 90% | > 5000 nM | > 5000 nM | – | – | – |
| Cl.O=C(CN1CCC(n2c(=O)[nH]c3ccccc32)CC1)Nc1ccc(C(=O)c2ccccc2)cc1 [Compound 263, N-(4-Benzoyl-phenyl)-2-[4-(2-oxo-2,3-dihydro-benzoimidazol-1-yl)-piperidin-1-yl]-acetamide; hydrochloride] | 4 nM | – | 3 nM | 215 to 216 °C | 97% | > 5000 nM | > 5000 nM | – | – | – |
| CC(C)c1ccc(NC(=O)CN2CCC(n3c(=O)[nH]c4ccccc43)CC2)cc1 [Compound 257, N-(4-Isopropyl-phenyl)-2-[4-(2-oxo-2,3-dihydro-benzoimidazol-1-yl)-piperidin-1-yl]-acetamide] | 110 nM | > 5000 nM | – | 133 to 134 °C | 88% | > 5000 nM | > 5000 nM | – | – | – |
| Cl.N#CC(c1ccccc1)C1CCN(CC(=O)Nc2ccc(C3CCCCC3)cc2)CC1 (centres unmarked) [Compound 300, 2-[4-(Cyano-phenyl-methyl)-piperidin-1-yl]-N-(4-cyclohexyl-phenyl)-acetamide; hydrochloride] | 13 nM | > 5000 nM | 13 nM | 150 °C | 90% | > 5000 nM | > 5000 nM | – | – | – |
| O=C(CN1CCC(n2c(=O)[nH]c3ccccc32)CC1)Nc1ccc(C2CCCCC2)cc1 [Compound 251, N-(4-Cyclohexyl-phenyl)-2-[4-(2-oxo-2,3-dihydrobenzoimidazol-1-yl)-piperidin-1-yl]-acetamide] | 4 nM | > 5000 nM | – | 130 to 132 °C | 92% | > 5000 nM | > 5000 nM | – | – | – |
| CC(=O)NCC1(c2ccccc2)CCN(CC(=O)Nc2ccc(C3CCCCC3)cc2)CC1.O=C(O)C(=O)O [Compound 301, 2-[4-(Acetylamino-methyl)-4-phenyl-piperidin-1-yl]-N-(4-cyclohexyl-phenyl)-acetamide; compound with oxalic acid] | – | > 5000 nM | – | 146 °C | 101% | > 5000 nM | > 5000 nM | 32 nM | 32 nM | – |
| CCNC1(C(N)=O)CCN(CC(=O)Nc2ccc(C3CCCCC3)cc2)CC1.O=C(O)C(=O)O [Compound 302, 1-[(4-Cyclohexyl-phenylcarbamoyl)-methyl]-4-ethylamino-piperidine-4-carboxylic acid amide; compound with oxalic acid] | 6 nM | > 5000 nM | 6 nM | 184 °C | 107% | > 5000 nM | > 5000 nM | – | – | – |
| CC(=O)NC1CCN(CC(=O)Nc2ccc(C(=O)c3ccccc3)cc2)C1.O=C(O)C(=O)O (centres unmarked) [Compound 304, 2-(3-Acetylamino-pyrrolidin-1-yl)-N-(4-benzoyl-phenyl)-acetamide; compound with oxalic acid] | 150 nM | > 5000 nM | 180 nM | 100 °C | 85% | > 5000 nM | > 5000 nM | – | – | – |
| CCCCCc1ccc(NC(=O)CN2CCC(n3c(=O)[nH]c4ccccc43)CC2)cc1 [Compound 255, 2-[4-(2-Oxo-2,3-dihydro-benzoimidazol-1-yl)-piperidin-1-yl]-N-(4-pentyl-phenyl)-acetamide] | 74 nM | > 5000 nM | – | 127 to 128 °C | 95% | > 5000 nM | > 5000 nM | – | – | – |
| CCCCCCc1ccc(NC(=O)CN2CCC(n3c(=O)[nH]c4ccccc43)CC2)cc1 [Compound 256, N-(4-Hexyl-phenyl)-2-[4-(2-oxo-2,3-dihydro-benzoimidazol-1-yl)-piperidin-1-yl]-acetamide] | 120 nM | > 5000 nM | – | 128 to 129 °C | 92% | > 5000 nM | > 5000 nM | – | – | – |
| Cl.O=C(CN1CCC(n2c(=O)[nH]c3ccccc32)CC1)Nc1ccc(-c2ccc(F)cc2)cc1 [Compound 327, N-(4′-Fluoro-biphenyl-4-yl)-2-[4-(2-oxo-2,3-dihydro-benzoimidazol-1-yl)-piperidin-1-yl]-acetamide; hydrochloride] | 110 nM | – | 60 nM | 289 °C | – | – | – | – | – | 101% |
| CCCCc1ccc(NC(=O)CN2CCC(n3c(=O)[nH]c4ccccc43)CC2)cc1 [Compound 254, N-(4-Butyl-phenyl)-2-[4-(2-oxo-2,3-dihydro-benzoimidazol-1-yl)-piperidin-1-yl]-acetamide] | 43 nM | > 5000 nM | – | 130 to 131 °C | 103% | > 5000 nM | > 5000 nM | – | – | – |
